Details of data set [1]: method as in PMID 31883991. The following applies: thermo-oxidative treatment; cited from earlier work.
The subject of another data set is S. typhimurium TA102. Nature of the data set: Bacterial reverse mutation assay (Ames test), strain TA102. The following applies: 40 μg/mL, regardless of metabolic activation (+/− S9). How it is done:
(§1) Potential mutagenicity or pro-mutagenicity of non-heated and heated ST, ST-LA, and ST-OA was determined using the bacterial reverse mutation assay (Ames test) with Salmonella enterica subsp. enterica ser. typhimurium tester strains TA98, TA100, and TA102, which were obtained from the Polish Collection of Microorganisms of the Institute of Immunology and Experimental Therapy of the Polish Academy of Sciences in Wroclaw.
(§2) Mutagenicity experiments were performed in the liquid pre-incubation assay, without and with metabolic activation by supplying Aroclor 1254-induced rat liver microsomal fraction (S9, Sigma-Aldrich) with NADP and cofactors for NADPH-supported oxidation, according to the procedure described by Mortelmans and Zeiger[39]. Briefly, reaction mixtures, consisting of 12-h bacterial culture, non-heated and heated compound (ST, ST-LA, ST-OA) at a concentration of 40 μg, 0.2 M phosphate buffer (pH 7.4), and alternatively S9 activating mixture, were pre-incubated at 37 °C for 20 min. […] The mutagen, 2-aminoanthracene (5 μg) (Sigma-Aldrich), was a positive control in pro-mutagenicity experiments. After pre-incubation, the reaction mixtures were added to the top agar supplemented with traces of histidine and biotin and poured onto the plates covered with minimum glucose agar. The cultures were incubated for 48 h at 37 °C, and the number of revertants (His+) colonies was counted manually.
(§3) Compounds with MI ≥ 2 can be recognized as potentially mutagenic.

The test system of a further data set is S. typhimurium TA98. Nature of the data set: Bacterial reverse mutation assay (Ames test), strain TA98. The following applies: 40 μg/mL, with microsomal fraction (+ S9). How it is done: as §1, §2, §3
In general terms: The Ames test uses bacterial strains that need an amino acid and regain growth without it when mutated back.

Data set [2] deals with CCD 841 CoN cells. More on the design: method as in PMID 31883991. The following applies: colon mucosa CCD 841 CoN cells, MTT test; cited from earlier work. Background: Formazan colour is commonly taken as a measure of viable cells.
Data set [3] relates to caspase 3/7 activity in CCD 841 CoN cells. Nature of the data set: Caspase 3/7 activity assay (APO-One Homogeneous). Format: cell-based, human. The following applies: 40 μg/mL, 24 h. On the procedure:
CCD 841 CoN cells were grown in black 96-well plates at an initial cell density of 2 × 10^4 cells/cm^2 for 24 h under standard culture conditions. The cell cultures were treated for 24 h with ST, ST-OA, and ST-LA at a 40 μg/mL dose. After treatment, caspase-3/7 activity was determined using the APO-One Homogeneous Caspase-3/7 Assay (Promega Corporation, Wisconsin, USA), which is based on the proteolytic cleavage of C-terminal side of aspartate residue in the DEVD peptide substrate by caspase 3/7 into fluorescent rhodamine 110 (R110). Analysis of caspase 3/7 activity was carried out following the manufacturer's instructions. Briefly, the cells after the treatment were incubated at room temperature with Apo-ONE® Caspase-3/7 Reagent—bifunctional cell lysis/caspase activity buffer combined with the pro-fluorescent caspase-3/7 substrate Z-DEVD-R110. After 4-h incubation, fluorescence was measured at an excitation wavelength of 485 nm and an emission wavelength of 530 nm using a Tecan M200 Infinite microplate reader. Data obtained were normalized to cellular protein content, quantified by BCA assay (Pierce® BCA Protein Assay Kit, Thermo Scientific Inc., USA) according to the manufacturer's protocol.

Data set [4] relates to CCD 841 CoN cells. Nature of the data set: DNA damage detection, comet assay (SCGE). Particulars: 40 μg/mL, 48 h. In kind it is cell-based, human. On the procedure:
The cells were grown at 6-well plates at the established density and standard culture conditions and exposed to the non-heated and heated ST, ST-OA, and ST-LA for 48 h. The non-treated cells and cells treated with H2O2 (100 μM, 30 min) to induce oxidative DNA damage constituted the negative and positive controls, respectively. After treatment, cells were analyzed for DNA damage using a single cell gel electrophoresis (SCGE) called comet assay, described in detail previously. Briefly, harvested cells suspended in low melting point agarose were put onto microscope slides pre-coated with normal melting point agarose and subjected sequentially to lysis, alkaline electrophoresis (pH > 13), and neutralization ([…]). The cells were stained with SYBRGold (Molecular Probes), viewed under a fluorescence microscope (Axiovert 200, Zeiss, Carl Zeiss, Gottingen, Germany), and analyzed using CometScore™ software (TriTek Corp., Sumerduck, VA, USA). At least 100 cells were analyzed on a microscope slide; 300 cells were considered for DNA damage detection in one sample. Data were expressed as the mean percentage of DNA content in the comet tail. […] Based on the comets' categorization, the total comet score (TCS) was calculated according to the formula: TCS = 0(n) + 1(n) + 2(n) + 3(n) + 4(n), where “n” is the number of cells in each comet class (0–4)[45].

The subject of another data set is S. typhimurium TA100. Particulars: 40 μg/mL, without metabolic activation. How it is done:
as §1, §2, §3

Data set [5] relates to CCD 841 CoN cells. Nature of the data set: Cell cycle analysis by flow cytometry (propidium iodide). In kind it is cell-based, human. Particulars: 40 μg/mL, 24 h. On the procedure:
CCD 841 CoN cells were grown in 6-well plates at an initial cell density of 2 × 10^4 cells/cm^2 for 24 h under standard culture conditions. The cells were treated for 24 h with the analyzed compounds at a concentration of 40 μg/mL; the high dose was applied because of the relatively low cytotoxic potential of ST-OA and ST-LA as determined in cytotoxicity studies. In addition, the cells were exposed to 0.05 μM camptothecin (Sigma-Aldrich) as a positive reference compound known to modulate cell cycle progression.
After treatment, the cells were harvested by trypsinization, washed in PBS, and fixed in 70% ethanol. Then, the cells were stained with 50 μg/mL propidium iodide in the presence of 100 μg/mL RNase (Sigma-Aldrich). The sample preparation method and staining protocol were described previously. The cycle phase distribution was analyzed with an Amnis™ FlowSight™ flow cytometer (Luminex Corporation, TX, USA).
(In general: A flow cytometer gives signals particle by particle.)

For data set [6], the system named is intracellular ROS in CCD 841 CoN cells. Nature of the data set: Intracellular ROS measurement (DCFH-DA, flow cytometry). In kind it is cell-based, human. The following applies: up to 40 μg/mL, 24 h. How it is done: CCD 841 CoN cells were grown in 6-well plates at an initial cell density of 2 × 10^4 cells/cm^2 for 24 h under standard culture conditions. The cell cultures were treated for 24 h with the analyzed compounds at a 40 μg/mL concentration. After treatment, the cells were harvested by trypsinization, washed with Hank's Balanced Salt Solution, and incubated with 10 μM 2′,7′-Dichlorodihydrofluorescein diacetate (DCFH-DA) (Life Technologies, Carlsbad, CA, USA) at 37 °C for 30 min. Intracellular DCF fluorescence (λex/em = 488/530 nm) was examined by flow cytometry (Amnis™ FlowSight™ flow cytometer).

We go through one compound from PMC10151334, “Anti-proliferative potential and oxidative reactivity of thermo-oxidative degradation products of stigmasterol and stigmasteryl esters for human intestinal cells” (Scientific Reports, 2023).

Take `CC[C@H](/C=C/[C@@H](C)[C@H]1CC[C@H]2[C@@H]3CC=C4C[C@@H](O)CC[C@]4(C)[C@H]3CC[C@]12C)C(C)C` [ST, Stigmasterol]: the “degradation of ST molecule due to the heating process” value in data set [1] is listed as “approximately 80%”. The “effect on TA102 revertants” value in the data set on S. typhimurium TA102 is recorded as “did not affect the number of TA102 revertants”. In the data set with S. typhimurium TA98, the “increase in number of revertant colonies TA98” value is on record as 1.6 fold. Moreover, the “half-maximal effective concentration (EC50), 50% decrease in cell viability” value with CCD 841 CoN cells [2] is 2.95 µg/mL. Also, in data set [3], the “caspase 3/7 activity” value is recorded as “Boosted caspase 3/7 activity”. In the data set on CCD 841 CoN cells [4], the “comets category 2 (medium DNA damage, 25 to 45% DNA in tail), share of cell population” value is listed as 3.5% and the “total comet score (TCS), comet class distribution vs control” value is reported as “no significant differences”. In the data set on S. typhimurium TA100, the “Mutagenic index TA100” value came to 1.9. Further, the “cell accumulation in G2/M phases” value in the data set with CCD 841 CoN cells [5] is “significant cell accumulation in the G2/M phases”. For the same compound, the “intracellular ROS production / oxidative reactivity” value in data set [6] is recorded as “did not induce enhanced intracellular ROS production”.
